Source: US9517993B2, “Antagonists of the toll-like receptor 1/2 complex” (THE REGENTS OF THE UNIVERSITY OF COLORADO, a body corporate, priority 2012, dated 2016)

Key:
TLR1/2 [1] = target: T1, TLR1/2 (Mus musculus, UniProt Q9EPQ1+Q9QUN7); assay: In vitro TLR1/2 inhibition assay (nitric oxide, Pam3CSK4-activated RAW 264.7 macrophages); assay type: cell-based; settings: RAW 264.7 NO assay; for TLR1/2 inhibitory activity (in words, SAR and specificity): Pam3CSK4
T1 construct: production of NO in RAW 264.7 macrophage cells; endogenous in cells; host or cells: RAW 264.7
T1 sequence (Q9EPQ1 26-795): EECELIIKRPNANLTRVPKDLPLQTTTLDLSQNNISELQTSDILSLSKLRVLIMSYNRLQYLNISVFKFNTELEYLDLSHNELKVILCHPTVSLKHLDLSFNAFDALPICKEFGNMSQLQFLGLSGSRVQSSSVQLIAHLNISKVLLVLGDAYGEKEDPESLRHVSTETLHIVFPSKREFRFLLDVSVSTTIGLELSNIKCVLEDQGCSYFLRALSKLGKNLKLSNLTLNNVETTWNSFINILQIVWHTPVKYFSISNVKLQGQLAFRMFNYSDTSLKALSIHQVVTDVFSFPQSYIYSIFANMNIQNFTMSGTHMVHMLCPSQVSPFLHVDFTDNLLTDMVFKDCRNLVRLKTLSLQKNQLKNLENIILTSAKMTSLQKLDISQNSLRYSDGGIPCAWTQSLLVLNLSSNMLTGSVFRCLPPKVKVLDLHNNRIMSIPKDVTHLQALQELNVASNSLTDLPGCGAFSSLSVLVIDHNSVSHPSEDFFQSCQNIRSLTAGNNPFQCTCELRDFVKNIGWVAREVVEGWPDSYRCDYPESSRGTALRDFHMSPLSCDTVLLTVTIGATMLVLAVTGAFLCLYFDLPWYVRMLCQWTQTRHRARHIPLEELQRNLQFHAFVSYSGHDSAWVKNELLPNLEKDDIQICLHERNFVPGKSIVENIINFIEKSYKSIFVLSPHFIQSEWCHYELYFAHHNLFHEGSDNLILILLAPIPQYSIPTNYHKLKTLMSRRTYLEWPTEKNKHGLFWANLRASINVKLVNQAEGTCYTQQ
T1 sequence (Q9QUN7 25-784): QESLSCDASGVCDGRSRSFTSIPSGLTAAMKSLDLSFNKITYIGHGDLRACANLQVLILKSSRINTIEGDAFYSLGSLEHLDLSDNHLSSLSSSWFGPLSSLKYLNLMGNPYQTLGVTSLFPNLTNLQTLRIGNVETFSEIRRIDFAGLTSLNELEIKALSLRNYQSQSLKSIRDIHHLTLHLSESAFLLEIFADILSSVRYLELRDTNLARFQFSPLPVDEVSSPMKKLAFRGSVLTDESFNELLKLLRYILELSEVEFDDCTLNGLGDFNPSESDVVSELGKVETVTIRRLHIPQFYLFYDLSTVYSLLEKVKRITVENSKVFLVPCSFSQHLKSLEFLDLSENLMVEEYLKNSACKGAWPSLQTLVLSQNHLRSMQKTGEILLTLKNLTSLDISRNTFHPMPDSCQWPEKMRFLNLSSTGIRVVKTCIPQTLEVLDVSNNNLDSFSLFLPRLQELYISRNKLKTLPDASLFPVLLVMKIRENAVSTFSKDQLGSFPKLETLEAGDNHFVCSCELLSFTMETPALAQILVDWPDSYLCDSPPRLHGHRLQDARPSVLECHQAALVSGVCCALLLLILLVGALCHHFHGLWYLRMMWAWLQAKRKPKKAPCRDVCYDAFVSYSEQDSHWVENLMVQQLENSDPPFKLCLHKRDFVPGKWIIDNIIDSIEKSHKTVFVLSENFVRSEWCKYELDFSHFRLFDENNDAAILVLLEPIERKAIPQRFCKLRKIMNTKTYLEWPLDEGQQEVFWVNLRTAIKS
Description: To identify novel TLR1/2 complex inhibitors, a cell-based assay was employed to screen the NCI-2 diversity small-molecule library. This 1,363 compound library was chosen from the larger NCI library, which has more than 140,000 compounds, on the basis of availability, purity, and other pharmacological features, such as relative rigidity, number of rotatable bonds and chiral centers, the absence of obvious leaving groups and weakly bounded heteroatoms, etc. Screening was performed in a 96-well plate format using a previously established high-throughput nitric oxide (NO) assay. See e.g. Cheng et al., Small molecule inhibitors of the TLR3/dsRNA complex, J. Am. Chem. Soc. (2011), 133:3764-67, which is herein incorporated by reference in its entirety. Briefly, synthetic triacylated lipoprotein Pam3CSK4 was employed to selectively activate TLR1/2 signaling, resulting in the expression of inducible nitric oxide synthase (iNOS) and the production of NO in RAW 264.7 macrophage cells. NO levels were monitored as an indicator of Pam3CSK4-induced TLR1/2 activation to evaluate the compound's inhibitory activity.
RAW 264.7 (Mouse leukaemic monocyte macrophage cell line) cells were grown in RPMI 1640 medium, supplemented with 10% FBS, penicillin (100 U/mL) and streptomycin ([…]). RAW cells were then planted in 96-well plates at 80,000 cells per well and grown for 24 h in the media descried previously at 37° C. in a 5% CO2 humidified incubator. After 24 h, non-adherent cells and media were removed and replaced with fresh unsupplemented RPMI 1640 medium. The adherent macrophages were treated with Pam3CSK4 (CAS No. 112208-00-1; a synthetic triacylated lipopeptide (LP) that mimics the acylated amino terminus of bacterial LPs) (200 ng/mL) (Invivogen, USA), an agonist of TLR1/2, and then added different concentrates of potential inhibitor. Two rows were only treated with Pam3CSK4 as control. Plates were then incubated for an additional 24 h. Following incubation 100 μL of media was removed and added to flat black 96-well microfluor plates (Thermo Scientific, MA, USA). To each well, 10 μL of 2,3-diaminonaphthalene (0.05 mg/mL in 0.62 M aqueous HCl solution) was added and incubated for 15 min in the dark. The reaction was quenched by addition of 5 μL of a 3 M aqueous NaOH solution and the plate was read on Beckman Coulter DTX880 reader (Beckman Coulter, Calif., USA) with excitation at 365 nm and emission at 450 nm. The nitrite (a stable metabolite of nitric oxide) concentration was determined from a nitrite standard curve. The inhibition rate (%) of NO release was determined using the following formula: Inhibition (%)=[Pam3CSK4(OD450) […]]/[Pam3CSK4 (OD450)−Control (OD450)]×100. The IC50 values for both inhibition and cytotoxicity were determined graphically using software Origin v7.5.

TLR1/2 [2] = target: T2, TLR1/2 (Homo sapiens, UniProt O60603+Q15399); assay: Fluorescence anisotropy competition assay with rhodamine-labeled Pam3CSK4; assay type: binding; design: His; TLR2 made in house; host or cells: baculovirus; Sf-9 for virus, High Five insect cells for expression (TLR2); settings: negative control
Text: The TLR2 protein was expressed in the baculovirus insect cell expression system using the methods described by Kuroki et al. See Iwaki et al., The extracellular Toll-like receptor 2 domain directly binds peptidoglycan derived from Staphylococcus aureus, J. Biol Chem (2002), 277:24315-20, which is herein incorporated by reference in its entirety. The activity of the TLR2 protein was validated by the fluorescence anisotropy assay. […] Good fitting (R2>0.98) inferred that compound 17 and Pam3CSK4 compete for the same binding site on the TLR1/2 dimeric surface.
In 500 μL Tris buffer (pH=7.2) add 10 μL, (1 ng/mL) rhodamine-labeled Pam3CSK4, test the fluorescence anisotropy at excitation of 549 nm and emission of 566 nm (Horiba Fluorolog 3). And 5 μL (20 μM) TLR1 (R &D) and 5 μL, (20 μM) TLR2 was added into the above buffer, then retest the anisotropy. Following, compound 17 or compound 6 was added in the buffer from the concentration of 0 to 6 μM, and the fluorescence anisotropy was tested in the corresponding concentration.
Fluorescence polarization experiments were performed at 25° C. using a Horiba Fluorolog-3 fluorometer. For direct binding measurements, serial dilutions of TLR1 (R&D, MN) and TLR2 were made in Tris buffer (pH=7.2), and an aliquot (10 μL) of 1 ng/mL rhodamine labeled Pam3CSK4, was added to a total volume of 500 μL. The competition binding solution was incubated for 30 minutes at 25° C. Serial dilutions of compound 17 or compound 6 were incubated with 20 μM TLR1, 20 μM TLR2 and rhodamine-labeled Pam3CSK4 for 30 min at room temperature.
Regression analysis was carried out using Origin 7.5 (OriginLab) ligand binding macro module. […] Equation (1): y=min+(max−min)/(1+10^x-logIC50)(total binding, x=log concentration of and rhodamine-labeled Pam3CSK4, min=nonspecific binding, max=maximum binding in absence of ligand). Equation (2): Ki=IC50/(1+[L]/Kd) ([L]=concentration of rhodamine-labeled Pam3CSK4).
Target sequence in this assay (Q15399 25-580 limits assumed): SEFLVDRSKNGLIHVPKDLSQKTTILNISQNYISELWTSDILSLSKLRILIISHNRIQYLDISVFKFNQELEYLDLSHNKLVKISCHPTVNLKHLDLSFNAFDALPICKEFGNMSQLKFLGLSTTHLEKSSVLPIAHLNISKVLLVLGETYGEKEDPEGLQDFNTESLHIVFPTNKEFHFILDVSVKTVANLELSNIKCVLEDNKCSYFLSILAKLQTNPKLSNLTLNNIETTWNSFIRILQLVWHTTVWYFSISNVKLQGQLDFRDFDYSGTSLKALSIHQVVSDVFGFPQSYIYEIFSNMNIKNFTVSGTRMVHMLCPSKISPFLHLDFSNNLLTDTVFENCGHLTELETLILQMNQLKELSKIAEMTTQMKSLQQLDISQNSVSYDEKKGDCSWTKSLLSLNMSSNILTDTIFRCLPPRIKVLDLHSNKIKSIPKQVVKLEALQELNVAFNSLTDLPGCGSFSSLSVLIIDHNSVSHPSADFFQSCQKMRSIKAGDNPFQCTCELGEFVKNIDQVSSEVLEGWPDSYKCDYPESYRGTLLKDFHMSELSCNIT
Target sequence in this assay (O60603 21-588 limits assumed): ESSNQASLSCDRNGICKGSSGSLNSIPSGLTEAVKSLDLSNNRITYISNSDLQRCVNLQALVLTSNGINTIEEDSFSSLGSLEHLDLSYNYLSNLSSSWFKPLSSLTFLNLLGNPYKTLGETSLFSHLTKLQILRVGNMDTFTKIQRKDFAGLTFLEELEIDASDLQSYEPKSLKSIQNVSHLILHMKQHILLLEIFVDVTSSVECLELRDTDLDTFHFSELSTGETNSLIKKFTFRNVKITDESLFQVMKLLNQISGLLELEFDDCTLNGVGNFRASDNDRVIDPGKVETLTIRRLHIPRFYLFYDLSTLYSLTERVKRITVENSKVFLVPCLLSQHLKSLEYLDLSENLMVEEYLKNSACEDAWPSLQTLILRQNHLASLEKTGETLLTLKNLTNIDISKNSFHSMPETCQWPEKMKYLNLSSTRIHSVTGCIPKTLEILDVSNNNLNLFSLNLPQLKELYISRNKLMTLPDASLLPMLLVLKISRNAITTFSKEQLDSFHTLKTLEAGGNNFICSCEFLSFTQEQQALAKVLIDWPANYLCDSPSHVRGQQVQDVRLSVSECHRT

TLR1/2 [3] = target: T2, TLR1/2; settings: read-out: known affinity (Kd); cited from earlier work
Target sequence in this assay (Q15399 25-786): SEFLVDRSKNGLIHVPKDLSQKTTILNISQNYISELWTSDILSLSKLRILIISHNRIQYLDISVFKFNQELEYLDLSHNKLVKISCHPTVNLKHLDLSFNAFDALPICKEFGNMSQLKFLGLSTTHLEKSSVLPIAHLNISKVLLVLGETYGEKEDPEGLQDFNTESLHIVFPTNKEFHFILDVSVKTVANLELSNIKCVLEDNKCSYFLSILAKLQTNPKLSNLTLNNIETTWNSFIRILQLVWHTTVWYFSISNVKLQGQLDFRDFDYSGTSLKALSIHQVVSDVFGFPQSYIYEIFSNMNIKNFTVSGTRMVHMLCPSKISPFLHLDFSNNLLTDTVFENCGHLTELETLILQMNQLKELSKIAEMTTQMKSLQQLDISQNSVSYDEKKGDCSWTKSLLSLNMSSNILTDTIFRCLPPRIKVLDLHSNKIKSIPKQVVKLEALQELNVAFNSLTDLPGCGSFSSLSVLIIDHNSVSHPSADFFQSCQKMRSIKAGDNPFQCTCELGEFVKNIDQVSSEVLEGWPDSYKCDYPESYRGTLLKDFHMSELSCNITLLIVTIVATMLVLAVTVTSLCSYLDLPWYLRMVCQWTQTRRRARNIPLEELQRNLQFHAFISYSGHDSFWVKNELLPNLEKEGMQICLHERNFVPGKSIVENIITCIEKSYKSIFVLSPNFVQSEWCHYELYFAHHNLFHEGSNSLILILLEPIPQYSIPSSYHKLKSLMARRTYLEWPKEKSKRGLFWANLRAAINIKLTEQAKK
Target sequence in this assay (O60603 21-784): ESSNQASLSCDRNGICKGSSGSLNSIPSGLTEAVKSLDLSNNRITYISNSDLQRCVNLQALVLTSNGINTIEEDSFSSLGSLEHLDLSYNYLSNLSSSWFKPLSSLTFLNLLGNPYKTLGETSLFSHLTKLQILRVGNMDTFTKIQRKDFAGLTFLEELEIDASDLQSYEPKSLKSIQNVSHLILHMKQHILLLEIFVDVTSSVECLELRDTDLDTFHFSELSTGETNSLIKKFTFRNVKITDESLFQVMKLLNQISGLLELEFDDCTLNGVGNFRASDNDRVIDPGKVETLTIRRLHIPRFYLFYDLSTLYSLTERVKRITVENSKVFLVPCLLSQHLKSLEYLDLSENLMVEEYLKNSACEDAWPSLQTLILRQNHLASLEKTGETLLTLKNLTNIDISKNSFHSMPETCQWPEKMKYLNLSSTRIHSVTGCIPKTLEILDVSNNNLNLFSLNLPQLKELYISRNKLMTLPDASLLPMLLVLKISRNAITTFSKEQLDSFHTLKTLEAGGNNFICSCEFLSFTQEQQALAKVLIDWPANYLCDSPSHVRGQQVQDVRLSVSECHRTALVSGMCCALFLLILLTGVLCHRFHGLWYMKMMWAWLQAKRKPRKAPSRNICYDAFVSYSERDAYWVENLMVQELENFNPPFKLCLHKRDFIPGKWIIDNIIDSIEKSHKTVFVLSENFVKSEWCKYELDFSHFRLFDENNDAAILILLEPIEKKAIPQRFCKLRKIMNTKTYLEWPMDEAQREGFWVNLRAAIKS

TLR1/2 inhibitory activity (in words, SAR and specificity) (TLR1/2 [1])	Compound	also measured
activity slightly decreased	CCCCCCNC(=O)c1cc(O)c(=O)c2c(O)c(O)c(OC)cc2c1 [compound 22, N-hexyl-3,4,6-trihydroxy-2-methoxy-5-oxo-5H-benzo[7]annulene-8-carboxamide]	
significant decrease of inhibition	COc1cc2cccc(OC)c(=O)c2c(OC)c1OC [compound 6, 2,3,4,6-tetramethoxy-5H-benzo[7]annulen-5-one]	IC50 (TLR1/2 [2]): > 40000 nM
	Pam3CSK4	Kd (TLR1/2 [3]): 1.2 nM
	COc1cc2cc(C(=O)O)cc(O)c(=O)c2c(O)c1O [compound 10, 3,4,6-trihydroxy-2-methoxy-5-oxo-5H-benzo[7]annulene-8-carboxylic acid]	decrease of TLR1/2 inhibitory activity versus comparator (TLR1/2 [1]; SAR comparison): six-fold
no significant change in activity	COc1cc2cc(C(=O)Nc3ccccc3C)cc(O)c(=O)c2c(O)c1O [compound 24, 3,4,6-trihydroxy-2-methoxy-5-oxo-N-o-tolyl-5H-benzo[7]annulene-8-carboxamide]	
no significant influence to its activity	COc1cc2cccc(O)c(=O)c2c(O)c1O [compound 4, 3,4,6-trihydroxy-2-methoxy-5H-benzo[7]annulen-5-one]	
no significant change in activity	COc1cc2cc(CO)cc(O)c(=O)c2c(O)c1O [compound 23, 3,4,6-trihydroxy-8-(hydroxymethyl)-2-methoxy-5H-benzo[7]annulen-5-one]	

Compound	TLR1/2 inhibitory activity (in words, SAR and specificity) (TLR1/2 [1])	also measured
COC(=O)c1cc(O)c(=O)c2c(O)c(O)c(OC)cc2c1 [compound 11, Methyl 3,4,6-trihydroxy-2-methoxy-5-oxo-5H-benzo[7]annulene-8-carboxylate]	returned the activity to the NCI35676 level	
